In patent US10596151B2, “Methods and pharmaceutical compositions for reducing arterial stiffness with a combination of a therapeutic agent blocking the angiotensin receptor and a therapeutic agent inhibiting the NEP enzyme” (Novartis AG, priority 2015, dated 2020):
Marks after values point to notes of the source that are not given here.

Assays:
[1] = test system: elderly patients (≥60 years) with essential hypertension; test: […] study: carotid-femoral aortic pulse wave velocity (SphygmoCor X-CEL); type: in vivo, human; conditions: for Change from baseline to 12 weeks, PWV / Change from baseline to 52 weeks, PWV: pulse wave velocity; for Change from baseline to 12 weeks, PWV: Week 12 endpoint, n = 192 LCZ696, n = 196 olmesartan; for Change from baseline to 52 weeks, PWV: week 52 endpoint, n = 199 both treatments
Protocol: In the context of the present invention PWV is measured as aortic PWV=aPWV. One system to measure aPWV is the SphygmoCor X-CEL system which measures the carotid-femoral aPWV, as the speed of the arterial pressure waveform as it travels through the descending aorta to the femoral artery, which is detected from simultaneously measured carotid and femoral arterial pulses. The carotid pulse is detected by applanation tonometry using a high-fidelity pressure transducer (Millar Instruments, Houston, Tex.), while the femoral pulse is detected using a partially inflated blood pressure cuff wrapped around the upper thigh. The distance travelled by the pulse wave is captured by making physical measurements on the body surface according to the manufacturer's recommendations. […] [Butlin M, Qasem A, Avolio A P. Estimation of central aortic pressure waveform features derived from the brachial cuff volume displacement waveform. Conf Proc IEEE Eng Med Biol Soc 2012; 2012:2591-4]
The study enrolled patient from 5 Dec. 2012 to 8 Apr. 2015.
The SphygmoCor X-CEL system also measures the carotid-femoral aPWV, as the speed of the arterial pressure waveform as it travels through the descending aorta to the femoral artery, which is detected from simultaneously measured carotid and femoral arterial pulses. The carotid pulse is detected by applanation tonometry using a high-fidelity pressure transducer (Millar Instruments, Houston, Tex.), while the femoral pulse is detected using a partially inflated blood pressure cuff wrapped around the upper thigh. The distance traveled by the pulse wave is captured by making physical measurements on the body surface according to the manufacturer's recommendations.

[2] = test system: patients with mild-to-moderate essential hypertension; conditions: LCZ696 100, 200 and 400 mg once daily; cited from earlier work
[3] = test system: patients with heart failure with preserved ejection fraction; conditions: cited from earlier work

SMILES	Between-treatment difference, PWV, 12 weeks ([1]; LCZ696 regimen vs olmesartan regimen, 12 weeks)	Between-treatment difference, PWV, 52 weeks ([1]; LCZ696 regimen vs olmesartan regimen, 52 weeks)	reduction of PWV in subgroup of patients with high baseline PWV ([1]; ad-hoc analysis, vs olmesartan regimen, both Week 12 and 52)	difference in carotid-femoral PWV between the two regimens ([1]; both Week 12 and 52, LCZ696 vs olmesartan regimen)	Change from baseline to 12 weeks, PWV [1]	Change from baseline to 52 weeks, PWV [1]	BP reductions vs corresponding doses of valsartan alone (160 and 320 mg) [2]	tolerability [2]	reduction of NT-proBNP vs valsartan alone ([3]; at 12 weeks)	tolerability ([3]; heart failure with preserved ejection fraction)
CCCCC(=O)N(Cc1ccc(-c2ccccc2-c2nn[n-]n2)cc1)C(C(=O)[O-])C(C)C.CCCCC(=O)N(Cc1ccc(-c2ccccc2-c2nn[n-]n2)cc1)C(C(=O)[O-])C(C)C.CCOC(=O)C(C)CC(Cc1ccc(-c2ccccc2)cc1)NC(=O)CCC(=O)[O-].CCOC(=O)C(C)CC(Cc1ccc(-c2ccccc2)cc1)NC(=O)CCC(=O)[O-].O.O.O.O.O.[Na+].[Na+].[Na+].[Na+].[Na+].[Na+] [LCZ696, trisodium [3-((1S,3R)-1-biphenyl-4-ylmethyl-3-ethoxycarbonyl-1-butylcarbamoyl) propionate-(S)-3′-methyl-2′-(pentanoyl{2″-(tetrazol-5-ylate)biphenyl-4′-ylmethyl}amino)butyrate]hemipentahydrate]	−0.1 (0.17)*	−0.1 (0.18)	tended to reduce PWV to a greater extent than olmesartan regimen	no significant difference	−0.7	−0.8	greater BP reductions than corresponding doses of valsartan alone	well tolerated	to a greater extent than valsartan alone	well tolerated
CCCc1nc(C(C)(C)O)c(C(=O)O)n1Cc1ccc(-c2ccccc2-c2nnn[nH]2)cc1 [Olmesartan, reference compound]					−0.6	−0.8				
